Measurements published in US11819572B2, “Treatment of pain by administration of sustained-release liposomal anesthetic compositions” (Pacira Pharmaceuticals, Inc., priority 2020, dated 2023).

How the values were obtained:
rats = test: Intravenous administration to rats of bupivacaine and EXPAREL: tolerability; format: in vivo
Procedure: The following is a summary of the results from two pre-clinical studies that compared the tolerability and PK profiles for non-liposomal bupivacaine vs EXPAREL®
Improved toleration was attributed to the reduced peak plasma levels of bupivacaine observed in animals following administration of EXPAREL® vs non-liposomal bupivacaine. 1) Intravenous (IV) Administration to Rats of (a) Bupivacaine and (b) EXPAREL®:
Free bupivacaine was administered to three rats in an amount equivalent to 1.0, 1.75 and 2.5 mg/kg of bupivacaine. Two rats died, corresponding to a 67% mortality rate. In a separate experiment, EXPAREL® was administered to rats in an amount equivalent to 2.5, 5.0 and 7.5 mg/kg of bupivacaine. […] The NOELs (no observable effect levels) determined for EXPAREL® and for free bupivacaine in this study were 7.5 mg/kg and 1.0 mg/kg, respectively.

Beagle dogs = test: Intravenous administration to Beagle dogs of bupivacaine and EXPAREL: adverse events and cardiology; format: in vivo, Beagle dog
Procedure: a) Intravenous (IV) Administration to Beagle Dogs of (a) Bupivacaine and (b) EXPAREL®:
Free bupivacaine was administered to dogs in an amount equivalent to 0.75 mg/kg and to 1.5 mg/kg of bupivacaine. Three dogs (one that was administered 0.75 mg/kg, and two that were administered 1.5 mg/kg) experienced side-effects such as convulsions, tremors, increased respiration and/or emesis (Table 1). In a separate experiment, EXPAREL® was administered to dogs in the same amount as above. […] A 3-fold higher dose of EXPAREL® (that is, a dose equivalent to 4.5 mg/kg of bupivacaine) was then administered to the dogs.

in vivo = details: beagle, dog, iv, 1.5 mg/kg
Procedure: Without wishing to be held to any particular mechanism or theory, it is believed that the observed toxicity differences above are attributable to the differences in plasma bupivacaine levels of the groups of dogs receiving free bupivacaine and EXPAREL®, respectively. […] Similarly, the Cmax for dogs receiving the same dose as in (i)—i.e., (1.5 mg/kg) of EXPAREL®—was clearly lower than that of dogs receiving free bupivacaine. […] The difference in exposure between the two groups may also be seen by comparing the respective values of Cmax/dose. […] In contrast with the above differences in Cmax in the two groups, the total AUC/dose was similar in dogs receiving EXPAREL® as compared to dogs receiving free bupivacaine. In particular, the values for female dogs were 751 (ng-hr/mL)/(mg/kg) for EXPAREL® (1.5 mg/kg dose), 674 (ng-hr/mL)/(mg/kg) for EXPAREL® (4.5 mg/kg dose), and 738 (ng-hr/mL)/(mg/kg)) for free bupivacaine. The values for male dogs were 1510 (ng-hr/mL)/(mg/kg) for EXPAREL® (1.5 mg/kg dose), 826 (ng-hr/mL)/(mg/kg) for EXPAREL® (4.5 mg/kg dose), and 879 (ng-hr/mL)/(mg/kg) for free bupivacaine.
(§1) The study was conducted in a manner analogous to the intravenous administration study described in a) above.

[1] = Bupivacaine plasma pharmacokinetics after intra-arterial (IA) administration in Beagle dogs; format: in vivo; details: Beagle dog plasma bupivacaine, 0.1 mg/kg, Day 1, mean
Procedure: b) Intra-Arterial Administration to Beagle Dogs of (a) Bupivacaine and (b) EXPAREL®:
as §1

[2] = three rats, 1.0, 1.75 and 2.5 mg/kg of bupivacaine
[3] = Beagle dogs, dose 0.75, 1.5 mg/kg (Group 2)

For `CCCCN1CCCCC1C(=O)Nc1c(C)cccc1C` (stereo not drawn) [free bupivacaine, bupivacaine], the “NOEL (no observable effect level)” value (rats; rats) was 1.0 mg/kg, the Mortality rate (rats; [2]) was 67% and the Rats that died (rats; [2]) was “Two rats died”. For the same molecule, the “Dogs that experienced side-effects such as convulsions, tremors, increased respiration and/or emesis” value (Beagle dogs; 0.75 mg/kg) was “one”, the “Dogs that experienced side-effects such as convulsions, tremors, increased respiration and/or emesis” value (Beagle dogs; 0.75 mg/kg and 1.5 mg/kg of bupivacaine (all)) was “Three dogs” and the “Dogs that experienced side-effects such as convulsions, tremors, increased respiration and/or emesis” value (Beagle dogs; 1.5 mg/kg) was “two”. The “Cardiology: Change in heart rate (BMP, avg)” value (Beagle dogs; [3]) was 56 ± 31 BMP, the “No. of animals exhibiting clinical symptoms: Increased respiration” value (Beagle dogs; [3]) was 2 and the “No. of animals exhibiting clinical symptoms: Sustained convulsions” value (Beagle dogs; [3]) was 1. For the same molecule, the “No. of animals exhibiting clinical symptoms: Tremors” value (Beagle dogs; [3]) was 1, the “No. of animals exhibiting clinical symptoms: Unsustained convulsions” value (Beagle dogs; [3]) was 0 and the “No. of animals exhibiting clinical symptoms: Vomiting” value (Beagle dogs; [3]) was 2. For the same molecule, the AUC(0-t) (in vivo; female) was 1110 ng·h/mL, the “AUC(0 − t)/D” value (in vivo; female) was 738 ng·h/mL/mg/kg and the Cmax (in vivo; female) was 2050 ng/mL. The Cmax/D (in vivo; female) was 1370 ng·kg/mL/mg, the Cmax/dose (in vivo; female) was 1.37 and the half-life (in vivo; female) was 28.4 min. For the same molecule, the “total AUC/dose” value (in vivo; female) was 738 (ng-hr/mL)/(mg/kg), the AUC(0-t) (in vivo; male) was 1320 ng·h/mL and the “AUC(0 − t)/D” value (in vivo; male) was 879 ng·h/mL/mg/kg. For the same molecule, the Cmax (in vivo; male) was 2750 ng/mL, the Cmax/D (in vivo; male) was 1830 ng·kg/mL/mg and the Cmax/dose (in vivo; male) was 1.83. The half-life (in vivo; male) was 31.2 min, the “total AUC/dose” value (in vivo; male) was 879 (ng-hr/mL)/(mg/kg) and the AUC(0-t) ([1]; Female) was 62.6 ng·h/mL. For the same molecule, the “AUC(0 − t)/D” value ([1]; Female) was 626 ng·h/mL/mg/kg, the Cmax ([1]; Female) was 187 ng/mL and the Cmax/D ([1]; Female) was 1870 ng·kg/mL/mg. For the same molecule, the half-life ([1]; Female) was 16 min, the AUC(0-t) ([1]; Male) was 71.1 ng·h/mL and the “AUC(0 − t)/D” value ([1]; Male) was 711 ng·h/mL/mg/kg. The Cmax ([1]; Male) was 205 ng/mL, the Cmax/D ([1]; Male) was 2050 ng·kg/mL/mg and the half-life ([1]; Male) was 15.8 min.
